Source: PubChem BioAssay AID192 (DTP/NCI, 2004)
Values joined by “and” are separate entries in the source; they are usually repeats but may differ in a detail not shown here. Equal entries are not always repeated. Inconclusive results and toxic doses are left out. The calls were made as follows: active = survival T/C of 150% or more; inactive = T/C below 125% in these data.

Tested on: BDF1 mice, B16 melanoma ip, median survival T/C
Assay: NCI In Vivo Anticancer Drug Screen. Data for tumor model B16 Melanoma (intraperitoneal) in B6D2F1 (BDF1) mice
Conditions: endpoint: median survival time, higher = longer survival
Experimental: The antitumor activity of compounds was measured in mice bearing transplantable tumors. Survival or tumor size were measured and the results are expressed as the measurement made in the treated group (T) divided by the measurement made in the vehicle treated control group (C). The tumor model used in this assay is B16 Melanoma (intraperitoneal) in B6D2F1 (BDF1) mice

[1] = dose: 100.0 mg/kg/injection, schedule: Q01DX009 (ip), vehicle: Klucel (hydroxypropylcellulose) (HPC)
[2] = dose: 200.0 mg/kg/injection, schedule: Q01DX009 (ip), vehicle: Klucel (hydroxypropylcellulose) (HPC)
[3] = dose: 400.0 mg/kg/injection, schedule: Q01DX009 (ip), vehicle: Klucel (hydroxypropylcellulose) (HPC)
[4] = dose: 6.25 mg/kg/injection, schedule: Q01DX009 (ip), vehicle: saline with Tween-80
[5] = dose: 25.0 mg/kg/injection, schedule: Q01DX009 (ip), vehicle: saline with Tween-80
[6] = dose: 50.0 mg/kg/injection, schedule: Q01DX009 (ip), vehicle: saline with Tween-80
[7] = dose: 100.0 mg/kg/injection, schedule: Q01DX009 (ip), vehicle: saline with Tween-80
[8] = dose: 200.0 mg/kg/injection, schedule: Q01DX009 (ip), vehicle: saline with Tween-80
[9] = dose: 50.0 mg/kg/injection, schedule: Q04DX003 (ip), vehicle: Klucel (hydroxypropylcellulose) (HPC)
[10] = dose: 100.0 mg/kg/injection, schedule: Q04DX003 (ip), vehicle: Klucel (hydroxypropylcellulose) (HPC)
[11] = dose: 200.0 mg/kg/injection, schedule: Q04DX003 (ip), vehicle: Klucel (hydroxypropylcellulose) (HPC)
[12] = dose: 12.5 mg/kg/injection, schedule: Q01DX009 (ip), vehicle: saline with Tween-80
[13] = dose: 75.0 mg/kg/injection, schedule: Q01DX009 (ip), vehicle: Klucel (hydroxypropylcellulose) (HPC)
[14] = dose: 150.0 mg/kg/injection, schedule: Q01DX009 (ip), vehicle: Klucel (hydroxypropylcellulose) (HPC)
[15] = dose: 25.0 mg/kg/injection, schedule: Q01DX009 (ip), vehicle: Klucel (hydroxypropylcellulose) (HPC)
[16] = dose: 50.0 mg/kg/injection, schedule: Q01DX009 (ip), vehicle: Klucel (hydroxypropylcellulose) (HPC)
[17] = dose: 400.0 mg/kg/injection, schedule: Q01DX009 (ip), vehicle: saline with Tween-80
[18] = dose: 3.12 mg/kg/injection, schedule: Q01DX009 (ip), vehicle: Klucel (hydroxypropylcellulose) (HPC)
[19] = dose: 6.25 mg/kg/injection, schedule: Q01DX009 (ip), vehicle: Klucel (hydroxypropylcellulose) (HPC)

Measured: T/C

Cc1c(Cl)cccc1NC(=O)c1ccccc1Cl
inactive: [1] 100 % of control | [2] 93 % of control | [3] 94 % of control

c1cc[c]([Pb]([S]c2nc3ccccc3[nH]2)([c]2ccccc2)[c]2ccccc2)cc1
inactive: dose: 0.75 mg/kg/injection, schedule: Q01DX009 (ip), vehicle: Klucel (hydroxypropylcellulose) (HPC) 100 % of control | dose: 1.5 mg/kg/injection, schedule: Q01DX009 (ip), vehicle: Klucel (hydroxypropylcellulose) (HPC) 94 % of control

COC(=O)CCC1=C(C)c2cc3[n-]c(cc4nc(cc5[n-]c(cc1n2)c(CCC(=O)OC)c5C)C=C4C)cc3C.[Ni+2]
inactive: dose: 1.56 mg/kg/injection, schedule: Q01DX009 (ip), vehicle: saline with Tween-80 91 % of control | dose: 3.13 mg/kg/injection, schedule: Q01DX009 (ip), vehicle: saline with Tween-80 88 % of control | [4] 86 % of control

COc1ccc2nonc2c1
inactive: [5] 107 % of control | [6] 95 % of control | [7] 91 % of control | [8] 101 % of control

CCOC(=O)C(=Cc1ccccc1Cl)C(=O)OCC
inactive: [9] 99 % of control | [10] 107 % of control | [11] 95 % of control

O=C1CC(=O)C(Br)=C1Br
inactive: dose: 0.08 mg/kg/injection, schedule: Q01DX009 (ip), vehicle: saline with Tween-80 97 % of control | dose: 0.15 mg/kg/injection, schedule: Q01DX009 (ip), vehicle: saline with Tween-80 93 % of control | dose: 0.3 mg/kg/injection, schedule: Q01DX009 (ip), vehicle: saline with Tween-80 95 % of control | dose: 0.37 mg/kg/injection, schedule: Q04DX003 (ip), vehicle: saline with Tween-80 94 % of control | dose: 75.0 micrograms/kg/injection, schedule: Q04DX003 (ip), vehicle: saline with Tween-80 92 % of control | dose: 150.0 micrograms/kg/injection, schedule: Q04DX003 (ip), vehicle: saline with Tween-80 92 % of control | dose: 300.0 micrograms/kg/injection, schedule: Q04DX003 (ip), vehicle: saline with Tween-80 91 % of control

Cc1cc(N)c2cc(NC(=O)CCCCCC(=O)Nc3ccc4nc(C)cc(N)c4c3)ccc2n1
inactive: [12] 90 % of control | [5] 98 % of control | [6] 110 % of control

CCCCCC/C=C/C#CCCCCCCCC(=O)O
inactive: dose: 37.5 mg/kg/injection, schedule: Q01DX009 (ip), vehicle: Klucel (hydroxypropylcellulose) (HPC) 107 % of control | [13] 99 % of control | [14] 101 % of control

Cn1c(N)c(N=O)c(=O)n(C)c1=O
inactive: dose: 90.0 mg/kg/injection, schedule: Q01DX009 (ip), vehicle: saline with Tween-80 100 % of control | dose: 180.0 mg/kg/injection, schedule: Q01DX009 (ip), vehicle: saline with Tween-80 90 % of control | dose: 360.0 mg/kg/injection, schedule: Q01DX009 (ip), vehicle: saline with Tween-80 100 % of control

CC[n+]1c(C)ccc2ccccc21
inactive: dose: 25.0 mg/kg/injection, schedule: Q01DX009 (ip), vehicle: carboxymethylcellulose (CMC) 112 % of control | dose: 50.0 mg/kg/injection, schedule: Q01DX009 (ip), vehicle: carboxymethylcellulose (CMC) 96 % of control

CNC(=O)Nc1ccccc1C(=O)NN
inactive: [15] 106 % of control | [16] 100 % of control | [1] 100 % of control | [2] 97 % of control

CCOC(=O)c1ccc(NC(=O)Nc2ccc(Cl)cc2)cc1
inactive: [1] 106 % of control | [2] 106 % of control | [3] 100 % of control

CCCCCCCCC(=O)CCCCC
inactive: [13] 104 % of control | [14] 103 % of control | dose: 300.0 mg/kg/injection, schedule: Q01DX009 (ip), vehicle: Klucel (hydroxypropylcellulose) (HPC) 103 % of control

Cn1nnnc1N/N=C/c1ccccc1
inactive: [7] 93 % of control | [8] 95 % of control | [17] 90 % of control

NC(=O)c1ccccc1NC(=O)c1ccccc1Cl
inactive: [1] 100 % of control | [2] 97 % of control | [3] 102 % of control

O=C(O)c1ccc(SSc2ccc(C(=O)O)cn2)nc1
inactive: [1] 88 % of control | [10] 93 % of control | [2] 100 % of control | [11] 97 % of control | [3] 88 % of control | dose: 400.0 mg/kg/injection, schedule: Q04DX003 (ip), vehicle: Klucel (hydroxypropylcellulose) (HPC) 90 % of control

CNC(=O)OCc1c(COC(=O)NC)c(C)n(-c2ccc(OC)cc2)c1C
inactive: [18] 113 % of control | [19] 111 % of control

CN(C)C(=S)S/C=C\C(=O)O
inactive: dose: 25.0 mg/kg/injection, schedule: Q04DX003 (ip), vehicle: Klucel (hydroxypropylcellulose) (HPC) 104 % of control | [9] 96 % of control | [10] 92 % of control | [11] 113 % of control

Nc1c(Br)cc2c(c1Br)Cc1cc(Cl)ccc1-2
inactive: dose: 6.25 mg/kg/injection, schedule: Q01DX009 (ip), vehicle: other 108 % of control | dose: 12.5 mg/kg/injection, schedule: Q01DX009 (ip), vehicle: other 96 % of control | dose: 25.0 mg/kg/injection, schedule: Q01DX009 (ip), vehicle: other 96 % of control | [16] 94 % of control | dose: 50.0 mg/kg/injection, schedule: Q01DX009 (ip), vehicle: other 89 % of control | [1] 107 % of control | dose: 100.0 mg/kg/injection, schedule: Q04DX003 (ip), vehicle: other 94 % of control | dose: 200.0 mg/kg/injection, schedule: Q04DX003 (ip), vehicle: other 86 % of control

C=CCOCC(O)CN(CCC)CCC (stereo unspecified)
inactive: [12] 114 % of control | [5] 112 % of control | [6] 114 % of control

O=C1C=C(SCCO)C(=O)c2ccccc21
inactive: dose: 13.0 micrograms/kg/injection, schedule: Q01DX009 (ip), vehicle: saline with Tween-80 100 % of control | dose: 18.7 micrograms/kg/injection, schedule: Q01DX009 (ip), vehicle: saline with Tween-80 94 % of control | dose: 20.0 micrograms/kg/injection, schedule: Q01DX009 (ip), vehicle: saline with Tween-80 92 % of control | dose: 30.0 micrograms/kg/injection, schedule: Q01DX009 (ip), vehicle: saline with Tween-80 95 % of control | dose: 45.0 micrograms/kg/injection, schedule: Q01DX009 (ip), vehicle: saline with Tween-80 117 % of control | dose: 90.0 micrograms/kg/injection, schedule: Q01DX009 (ip), vehicle: saline with Tween-80 107 % of control

CCOc1cc([N+](=O)[O-])c(OCC)cc1Cl
inactive: [7] 94 % of control | [8] 97 % of control | [17] 96 % of control

CC1(C)OCC(CO)(Nc2nc(N3CC3)nc(N3CC3)n2)CO1
inactive: dose: 0.31 mg/kg/injection, schedule: Q01DX009 (ip), vehicle: saline 105 % of control and 112 % of control

CCCCCC/C=C\C(=O)O
inactive: [4] 94 % of control and 95 % of control | [12] 93 % of control and 104 % of control | [5] 93 % of control and 98 % of control | [6] 88 % of control

O=c1cc(-c2ccccc2)[nH]c(=S)[nH]1
inactive: [7] 114 % of control | [8] 108 % of control

ClCCOC1COC(OCCCl)CO1 (stereo unspecified)
inactive: [18] 103 % of control | [19] 98 % of control | dose: 12.5 mg/kg/injection, schedule: Q01DX009 (ip), vehicle: Klucel (hydroxypropylcellulose) (HPC) 93 % of control | [15] 103 % of control | [16] 96 % of control | [1] 98 % of control | [2] 100 % of control

O=C(O)CCC(=O)O
inactive: dose: 10.0 mg/kg/injection, schedule: Q01DX009 (ip), vehicle: water 101 % of control [middle of 4 runs] | dose: 20.0 mg/kg/injection, schedule: Q01DX009 (ip), vehicle: water 102 % of control [middle of 4 runs] | dose: 40.0 mg/kg/injection, schedule: Q01DX009 (ip), vehicle: water 101 % of control and 119 % of control and 98 % of control | dose: 80.0 mg/kg/injection, schedule: Q01DX009 (ip), vehicle: water 93 % of control and 100 % of control and 104 % of control | dose: 160.0 mg/kg/injection, schedule: Q01DX009 (ip), vehicle: water 88 % of control and 94 % of control and 114 % of control | dose: 320.0 mg/kg/injection, schedule: Q01DX009 (ip), vehicle: water 106 % of control
